What was measured:
[1] = Antiulcerogenic (protective) action on the stomach, so-called Shay rat (pylorus ligature + acetylsalicylic acid), ulcer index; assay type: in vivo; conditions: rat, in vivo; LD50 i.v. mice / ED50 p.o. rats; read-out: TQ LD50/ED50 (therapeutic quotient)
Protocol: (§1) ED50 = dose which reduces the ulcer index by 50% in the treated grou
(§2) compared with the control group
(§3) The antiulcerogenic action was tested in accordance with the method using the so-called Shay rat:
(§4) Rats (female, 180 to 200 g, 4 animals per cage on a high grid) which had been fasted for 24 hours were subjected to ulcer provocation by pylorus ligature (under diethyl ether anaesthesia) and oral administration of 100 mg/10 ml/kg of acetylsalicylic acid. The substances to be tested are administered orally (10 ml/kg) 1 hour before the pylorus ligature. The wound is closed by means of Michel clamps. 4 hours thereafter, the animals are killed under ether anaesthesia by atlas dislocation, and the stomach is removed. The stomach is opened longitudinally and fixed to a cork tile after the amount of gastric juice secreted (volume) has been determined; the number and size (=diameter) of ulcers present are determined with a stereomicroscope with 10-fold magnification. The product of the degree of severity (according to the following rating scale) and the number of ulcers serves as the individual ulcer index. […]
(§5) ______________________________________
(§6) The reduction in the average ulcer index of each treated group compared with that of the control group (=100%) serves as a measure of the antiulcerogenic effect. The ED50 designates the dose which reduces the average ulcer index by 50%.

[2] = system: stomach (Shay rat, gastric ulcers); test: as above; assay type: in vivo; conditions: for ED50: Rattus norvegicus, po, peroral administration to rats, 1 hour before pylorus ligature, dose which reduces the ulcer index by 50% compared with control; for dose/action curve (antiulcerogenic action): compound 1 even at 300 mg/kg
Protocol: as §1, §2, §3, §4, §5, §6

Gastric secretion = test: Inhibition of gastric secretion in the Shay rat; assay type: in vivo; conditions: in rats, 4 hours after administration of the antiulcerogenic ED50
Protocol: ^(+) % inhibition = inhibition of the gastric secretion (in %) 4 hour
after administration of the antiulcerogenic ED50
Rats (female, 180 to 200 g, 4 animals per cage on a high grid) which had been fasted for 24 hours were subjected to ulcer provocation by pylorus ligature (under diethyl ether anaesthesia) and oral administration of 100 mg/10 ml/kg of acetylsalicylic acid. The substances to be tested are administered orally (10 ml/kg) 1 hour before the pylorus ligature. The wound is closed by means of Michel clamps. 4 hours thereafter, the animals are killed under ether anaesthesia by atlas dislocation, and the stomach is removed. The stomach is opened longitudinally and fixed to a cork tile after the amount of gastric juice secreted (volume) has been determined; the number and size (=diameter) of ulcers present are determined with a stereomicroscope with 10-fold magnification. The product of the degree of severity (according to the following rating scale) and the number of ulcers serves as the individual ulcer index.

[3] = Determination of acute toxicity (LD50) in mice; conditions: mouse, in vivo; intravenous administration to mice; 7 days observation
Protocol: LD50 = dose at which 50% of the animals
The toxicity investigations are carried out on female NMRI mice (body weight: 22 to 26 g). The animals (5 animals per dose) receive feed and water ad libitum. Various doses of the substances are administered intravenously (injection time: 1 minute). The observation period is 7 days. The LD50 (the dose at which 50% of the animals die) is determined by means of linear regression.

Row | SMILES | selectivity ratio [1] | ED50 [2] [mg/kg] | dose/action curve (antiulcerogenic action) ([2]; oral, rats) | Gastric secretion % inhibition (Gastric secretion) [%] | inhibition effects (antiulcerogenic action) ([2]; 10 mg/kg, oral, rats) | LD50 at 168 h [3] [mg/kg]
1 | CC1(C)[C@@H](OC(=O)CCC(=O)O)CC[C@]2(C)[C@H]3C(=O)C=C4[C@@H]5C[C@@](C)(C(=O)O)CC[C@]5(C)CC[C@@]4(C)[C@]3(C)CC[C@@H]12 [compound 1, carbenoxolone, reference compound] | 4.1 | ~70 | very severely flattened so that no substantial increase in the ulcerogenic action can be achieved even at 300 mg/kg | 7 | – | –
2 | CN1CCN(CC(=O)N2c3ccccc3NC(=O)c3cscc32)CC1 [compound 2, 9,10-dihydro-4-[(4-methylpiperazin-1-yl)acetyl]-4H-thieno[3,4-b][1,5]benzodiazepin-10-one] | 76 | 2.5 | strictly dependent on the dose | 35 | up to 95% | 190

— patent publication US4381301A, “Substituted tricyclic thieno compounds, their synthesis, their use, their compositions and their medicaments” (BYK Gulden Lomberg Chemische Fabrik GmbH, priority 1980, dated 1983)
